According to patent US4738970A, “Benzimidazolyl-thio-tetrahydroquinolines and anti-peptic ulcer compositions containing the same” (Otsuka Pharmaceutical Co., Ltd., priority 1984, dated 1988):

These compounds were tested against T1, H^+ -K^+ -ATPase (Sus scrofa, UniProt P19156) (assay: Inhibitory Effect Test for the Activity of H^+ -K^+ -ATPase). Conditions: H+-K+-ATPase from the stomach of swine; preincubation pH 6.1, room temperature 30 min; reaction pH 7.4, 37° C. 30 min; read-out: IC50 (50% inhibition dosage).
T1 construct: which was prepared from the stomach of swine; from tissue; host or cells: stomach of swine
T1 sequence (P19156 2-1034 limits assumed): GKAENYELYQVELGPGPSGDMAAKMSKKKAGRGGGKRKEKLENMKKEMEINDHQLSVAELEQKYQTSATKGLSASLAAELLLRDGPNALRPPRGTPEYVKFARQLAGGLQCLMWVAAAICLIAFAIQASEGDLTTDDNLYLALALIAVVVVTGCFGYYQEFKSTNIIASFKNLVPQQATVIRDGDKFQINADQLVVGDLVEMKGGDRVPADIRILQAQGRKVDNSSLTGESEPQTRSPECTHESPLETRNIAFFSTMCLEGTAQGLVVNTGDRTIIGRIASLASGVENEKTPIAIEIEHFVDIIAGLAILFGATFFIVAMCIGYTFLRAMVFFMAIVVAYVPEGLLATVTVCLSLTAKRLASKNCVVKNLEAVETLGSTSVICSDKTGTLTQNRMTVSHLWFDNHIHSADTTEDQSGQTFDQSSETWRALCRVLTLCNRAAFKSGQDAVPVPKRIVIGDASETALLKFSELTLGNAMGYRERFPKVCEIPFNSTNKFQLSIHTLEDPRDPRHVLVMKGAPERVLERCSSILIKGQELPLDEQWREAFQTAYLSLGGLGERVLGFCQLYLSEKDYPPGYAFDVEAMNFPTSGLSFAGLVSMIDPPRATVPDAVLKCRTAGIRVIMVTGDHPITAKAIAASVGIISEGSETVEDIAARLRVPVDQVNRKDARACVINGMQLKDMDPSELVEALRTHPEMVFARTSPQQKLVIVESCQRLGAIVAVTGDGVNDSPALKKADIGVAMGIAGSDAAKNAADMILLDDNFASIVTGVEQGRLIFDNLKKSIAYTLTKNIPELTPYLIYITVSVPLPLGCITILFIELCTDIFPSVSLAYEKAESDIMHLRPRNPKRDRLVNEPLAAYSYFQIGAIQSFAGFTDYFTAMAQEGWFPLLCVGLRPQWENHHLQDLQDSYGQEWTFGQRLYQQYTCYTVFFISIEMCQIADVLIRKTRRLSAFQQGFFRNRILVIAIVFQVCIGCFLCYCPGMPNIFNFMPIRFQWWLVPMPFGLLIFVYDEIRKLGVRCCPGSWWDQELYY
T1 sequence (P18434 whole entry partner): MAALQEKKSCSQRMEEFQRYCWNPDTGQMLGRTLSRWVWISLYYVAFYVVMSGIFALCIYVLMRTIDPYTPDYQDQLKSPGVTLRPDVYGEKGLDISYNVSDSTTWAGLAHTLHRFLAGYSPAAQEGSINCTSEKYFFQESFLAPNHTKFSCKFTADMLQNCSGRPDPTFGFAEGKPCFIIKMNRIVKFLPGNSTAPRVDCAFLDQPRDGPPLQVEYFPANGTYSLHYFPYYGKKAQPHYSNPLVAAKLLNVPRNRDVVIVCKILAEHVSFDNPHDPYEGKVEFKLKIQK
Format: biochemical
Method: H^+ -K^+ -ATPase (hydrogen-potassium-activated adenosine triphosphatase) (protein content: 10 mcg) which was prepared from the stomach of swine was added to PIPES-tris[buffer PIPES-tris(hydroxymethyl)-2-amino-1,3-propanediol buffer (pH=6.1) containing 2 mM of piperazine-N,N'-bis(2-ethanesulfonic acid)], then the resulting mixture was let allowed to stand at room temperature.
Each of the test compounds was dissolved in dimethylformamide, and the dimethylformamide solution was added to the above-mentioned H^+ -K^+ -ATPase buffer solution so as to adjust the final concentration of the test compound to 1.0%. Each of thus prepared mixture was reacted at room temperature for 30 minutes.
Next, the above-mentioned reaction mixture was divided into two portions, and to the one portion thereof was added 1 ml of 75 mM PIPES-tris buffer solution (pH=7.4) (containing 4 mM of MgCl2, 4 mM of Na2 ATP and 20 mM of KCl), on the other hand, to another portion of the reaction mixture was added 1 ml of 75 mM PIPES-tris buffer solution (pH=7.4) (containing 4 mM of MgCl2 and 4 mM of Na2 ATP), respectively. Each of these two series of sample solutions was separately reacted at 37° C. for 30 minutes. Then to each of these reaction mixtures was added 0.3 ml of 40% trichloroacetic acid to terminate the reaction, and was subjected to centrifugal separation at 3,000 rpm for 10 minutes to obtain the supernatent. Next, the inorganic phosphoric acid formed in the reaction mixture was determined by a method according to the article by C. H. Fiske and Y. Subbarow: J. Biol. Chem., Vol. 66, pages 375-400, (1925). The difference of the value obtained by substracting the quantity of inorganic phosphoric acid determined by using PIPES-tris buffer solution without containing 20 mM of KCl from the quantity of inorganic phosphoric acid determined by using PIPES-tris buffer solution containing 20 mM of KCl, was converted into as activity value of enzyme with respect to the unit protein and unit time.
Inhibitory rate (%) of each of the test compounds was obtained from the activity value of the enzyme at the respective dosages in the test groups and those of obtained from the control group, then IC50 (50% inhibition dosage of each of the test compounds) was calculated from the inhibitory rate (%).
For `C=CCOc1c(C)cnc2c1CCCC2[S+]([O-])c1nc2cc(C)c(C)cc2[nH]1` (stereo not shown) [Test compound 4, 4-Allyloxy-8-(5,6-dimethyl-2-benzimidazolyl)-sulfinyl-3-methyl-5,6,7,8-tetrahydroquinoline], the IC50 was 610 nM. In the case of `COc1c(C)cnc(C[S+]([O-])c2nc3cnccc3[nH]2)c1C` (stereo not shown) [Test compound 46, 2-[(3,5-Dimethyl-4-methoxy-2-pyridyl)-methylsulfinyl]imidazo[4,5-c]pyridine], the IC50 is reported as 29200 nM. `[O-][S+](c1nc2ccc(C(F)(F)F)cc2[nH]1)C1CCCc2cccnc21` (stereo not shown) [Test compound 28, 8-(5-Trifluoromethyl-2-benzimidazolyl)-sulfinyl-5,6,7,8-tetrahydroquinoline] was tested, and the IC50 was 1900 nM. Compound `COc1c(C)cnc2c1CCCC2[S+]([O-])c1nc2ccc(F)cc2[nH]1` (stereo not shown) [Test compound 34, 3-Methyl-4-methoxy-8-(5-fluoro-2-benzimidazolyl)sulfinyl-5,6,7,8-tetrahydroquinoline] has an IC50 of 220 nM. Compound `CC(=O)c1ccc2nc([S+]([O-])C3CCCc4cc(C)cnc43)[nH]c2c1` (stereo not shown) [Test compound 18, 3-Methyl-8-(5-acetyl-2-benzimidazolyl)-sulfinyl-5,6,7,8-tetrahydroquinoline] has an IC50 of 3200 nM. For `COc1ccc2nc([S+]([O-])C3CCCc4cc(C)c(Cl)nc43)[nH]c2c1` (stereo not shown) [Test compound 22, 2-Chloro-3-methyl-8-(5-methoxy-2-benzimidazolyl)sulfinyl-5,6,7,8-tetrahydroquinoline], the IC50 was 2100 nM. Compound `[O-][S+](c1nc2cc(Cl)c(Cl)cc2[nH]1)C1CCCc2cccnc21` (stereo not shown) [Test compound 36, 8-(5,6-Dichloro-2-benzimidazolyl)sulfinyl-5,6,7,8-tetrahydroquinoline] has an IC50 of 700 nM. `Cc1cnc2c(c1)C([S+]([O-])c1nc3ccc(C(F)(F)F)cc3[nH]1)CCC2` (stereo not shown) [Test compound 39, 3-Methyl-5-(5-trifluoromethyl-2-benzimidazolyl)sulfinyl-5,6,7,8-tetrahydroquinoline] showed an IC50 of 2980 nM. `Cc1cccc2nc([S+]([O-])C3CCCc4cccnc43)[nH]c12` (stereo not shown) [Test compound 33, 8-(4-Methyl-2-benzimidazolyl)sulfinyl-5,6,7,8-tetrahydroquinoline] gave an IC50 of 2600 nM. `COc1cc2nc([S+]([O-])C3CCCc4cc(C)cnc43)[nH]c2cc1OC` (stereo not shown) [Test compound 19, 3-Methyl-8-(5,6-dimethoxy-2-benzimidazolyl)-sulfinyl-5,6,7,8-tetrahydroquinoline] gave an IC50 of 3100 nM. Compound `C=CCOc1c(C)cnc2c1CCCC2[S+]([O-])c1nc2ccccc2[nH]1` (stereo not shown) [Test compound 1, 4-Allyloxy-8-(2-benzimidazolyl)sulfinyl-3-methyl-5,6,7,8-tetrahydroquinoline] has an IC50 of 740 nM. Work on `COc1ccnc2c1CCCC2[S+]([O-])c1nc2ccc(F)cc2[nH]1` (stereo not shown) [Test compound 51, 4-Methoxy-8-(5-fluoro-2-benzimidazolyl)-sulfinyl-5,6,7,8-tetrahydroquinoline] yielded an IC50 of 99 nM. For `C=CCOc1c(C)cnc2c1CCCC2[S+]([O-])c1nc2ccc(F)cc2[nH]1` (stereo not shown) [Test compound 11, 4-Allyloxy-8-(5-fluoro-2-benzimidazolyl)-sulfinyl-3-methyl-5,6,7,8-tetrahydroquinoline], the IC50 was 730 nM. With `COc1ccnc2c1CCCC2[S+]([O-])c1nc2ccc(C(F)(F)F)cc2[nH]1` (stereo not shown) [Test compound 25, 4-Methoxy-8-(5-trifluoromethyl-2-benzimidazolyl)sulfinyl-5,6,7,8-tetrahydroquinoline] the IC50 was 2900 nM. In the case of `c1ccc(CSc2nc3ncccc3[nH]2)nc1` [Test compound 47, 2-(2-Pyridylmethylthio)imidazo[4,5-b]pyridine, reference compound], the IC50 is reported as over 100000 nM. `COCCOc1c(C)cnc2c1CCCC2[S+]([O-])c1nc2ccccc2[nH]1` (stereo not shown) [Test compound 9, 8-(2-Benzimidazolyl)sulfinyl-4-(2-methoxyethoxy)-3-methyl-5,6,7,8-tetrahydroquinoline] gave an IC50 of 840 nM. `COc1c(C)cnc(C[S+]([O-])c2nc3nc(Br)ccc3[nH]2)c1C` (stereo not shown) [Test compound 45, 5-Bromo-2-[(3,5-dimethyl-4-methoxy-2-pyridyl)methylsulfinyl]imidazo[4,5-b]pyridine] showed an IC50 of 2340 nM. In the case of `COc1c(C)cnc2c1CCCC2[S+]([O-])c1nc2cc(C)c(C)cc2[nH]1` (stereo not shown) [Test compound 38, 3-Methyl-4-methoxy-8-(5,6-dimethyl-2-benzimidazolyl)sulfinyl-5,6,7,8-tetrahydroquinoline], the IC50 is reported as 340 nM. `Cc1cnc2c(c1)CCCC2[S+]([O-])c1nc2ccc(C)cc2[nH]1` (stereo not shown) [Test compound 16, 3-Methyl-8-(5-methyl-2-benzimidazolyl)-sulfinyl-5,6,7,8-tetrahydroquinolin] gave an IC50 of 1100 nM. `COc1ccc2nc([S+]([O-])C3CCCc4c(OC)ccnc43)[nH]c2c1` (stereo not shown) [Test compound 24, 4-Methoxy-8-(5-methoxy-2-benzimidazolyl)-sulfinyl-5,6,7,8-tetrahydroquinoline] was tested, and the IC50 was 7600 nM. Compound `C#CCOc1c(C)cnc2c1CCCC2[S+]([O-])c1nc2ccccc2[nH]1` (stereo not shown) [Test compound 7, 8-(2-Benzimidazolyl)sulfinyl-3-methyl-4-propargyloxy-5,6,7,8-tetrahydroquinoline] has an IC50 of 1200 nM. For `COc1c(C)cnc2c1CCCC2[S+]([O-])c1nc2cc(F)c(F)cc2[nH]1` (stereo not shown) [Test compound 43, 3-Methyl-4-methoxy-8-(5,6-difluoro-2-benzimidazolyl)sulfinyl-5,6,7,8-tetrahydroquinoline], the IC50 was 280 nM. `COc1ccc2nc([S+]([O-])C3CCCc4c(C)ccnc43)[nH]c2c1` (stereo not shown) [Test compound 13, 4-Methyl-8-(5-methoxy-2-benzimidazolyl)-sulfinyl-5,6,7,8-tetrahydroquinoline] was tested, and the IC50 was 1100 nM. Work on `COc1ccc2nc([S+]([O-])C3CCCc4ccc(O)nc43)[nH]c2c1` (stereo not shown) [Test compound 29, 2-Hydroxy-8-(5-methoxy-2-benzimidazolyl)-sulfinyl-5,6,7,8-tetrahydroquinoline] yielded an IC50 of 2300 nM. For `Cc1cnc2c(c1)CCCC2[S+]([O-])c1nc2ccccc2[nH]1` (stereo not shown) [Test compound 15, 3-Methyl-8-(2-benzimidazolyl)sulfinyl-5,6,7,8-tetrahydroquinoline], the IC50 was 1800 nM. `COc1cc2nc([S+]([O-])C3CCCc4cccnc43)[nH]c2cc1OC` (stereo not shown) [Test compound 30, 8-(5,6-Dimethoxy-2-benzimidazolyl)sulfinyl-5,6,7,8-tetrahydroquinoline] was tested, and the IC50 was 930 nM. `Cc1cnc2c(c1)CCCC2[S+]([O-])c1nc2cc(C)c(C)cc2[nH]1` (stereo not shown) [Test compound 53, 3-Methyl-8-(5,6-dimethyl-2-benzimidazolyl)-sulfinyl-5,6,7,8-tetrahydroquinoline] was tested, and the IC50 was 580 nM. With `COc1ccc2nc([S+]([O-])C3CCCc4ccc(Cl)nc43)[nH]c2c1` (stereo not shown) [Test compound 21, 2-Chloro-8-(5-methoxy-2-benzimidazolyl)-sulfinyl-5,6,7,8-tetrahydroquinoline] the IC50 was 2700 nM. `COc1c(C)cnc2c1CCCC2[S+]([O-])c1nc2cc(Cl)c(Cl)cc2[nH]1` (stereo not shown) [Test compound 41, 3-Methyl-4-methoxy-8-(5,6-dichloro-2-benzimidazolyl)sulfinyl-5,6,7,8-tetrahydroquinoline] was tested, and the IC50 was 99 nM. Work on `COCCOc1c(C)cnc2c1CCCC2[S+]([O-])c1nc2ccc(F)cc2[nH]1` (stereo not shown) [Test compound 10, 8-(5-Fluoro-2-benzimidazolyl)sulfinyl-4-(2-methoxyethoxy)-3-methyl-5,6,7,8-tetrahydroquinoline] yielded an IC50 of 870 nM. `O=[N+]([O-])c1ccc2nc([S+]([O-])C3CCCc4cccnc43)[nH]c2c1` (stereo not shown) [Test compound 31, 8-(5-Nitro-2-benzimidazolyl)sulfinyl-5,6,7,8-tetrahydroquinoline] showed an IC50 of 2900 nM. With `COc1c(C)cnc2c1CCCC2[S+]([O-])c1nc2ccc(Cl)cc2[nH]1` (stereo not shown) [Test compound 50, 3-Methyl-4-methoxy-8-(5-chloro-2-benzimidazolyl)sulfinyl-5,6,7,8-tetrahydroquinoline] the IC50 was 180 nM. `Cc1cnc2c(c1)CCCC2[S+]([O-])c1nc2cc(Cl)c(Cl)cc2[nH]1` (stereo not shown) [Test compound 52, 3-Methyl-8-(5,6-dichloro-2-benzimidazolyl)-sulfinyl-5,6,7,8-tetrahydroquinoline] was tested, and the IC50 was 230 nM. Work on `Cc1cnc2c(c1)CCCC2[S+]([O-])c1nc2ccc(C(F)(F)F)cc2[nH]1` (stereo not shown) [Test compound 27, 3-Methyl-8-(5-trifluoromethyl-2-benzimidazolyl)sulfinyl-5,6,7,8-tetrahydroquinoline] yielded an IC50 of 1500 nM.
